The text below walks through data of patent US20230181746A1, “BENZOYLHYDRAZIDE-DERIVED HDAC DEGRADERS AS THERAPEUTICS FOR TREATING CANCER AND OTHER HUMAN DISEASES” (University of Florida Research Foundation, Inc., priority 2020, published 2023).

A value given as a limit tells only on which side of the number the result lay.

One test has as its system MDA-MB-468 cells. Kind of test: Cell viability assay (CellTiter-Glo). It counts as cell-based. As for the experimental part: MDA-MB-468, MDA-MB-231, and T47D cells were treated with the indicated compounds at different concentrations for 72 h. Cell viability was assessed with CellTiter-Glo® reagents.
(§1) Cell lines were obtained from ATCC and subsequently authenticated. Cells were cultured with DMEM supplemented with 10% bovine calf serum, penicillin to 10 units/mL, and streptomycin to 10 μg/mL. For viability assays, 5,000 cells/well were seeded in 96-well plates. Compounds at a specified concentration or DMSO were added 24 h later. Viability assays were performed 72 h after compound addition using the CellTiter-Glo reagents (Promega). For colony formation assay, cells (˜1,000 cells/well) were seeded in a 24-well plate in quadruplicates. At 24 h after seeding, DMSO, XZ9002, or XZ9002-NC were added at a specified concentration. Medium was replaced with freshly prepared medium containing DMSO, XZ9002 or XZ9002-NC every five days until visible colonies appeared, typically in 15 to 20 days after initial cell seeding. Cells were fixed with 4% paraformaldehyde for 15 min and stained with 2% methylene blue in 20% ethanol for 30 min to 1 h. The cells were washed twice with distilled water and dried in air. For western blotting, cell cultures were exposed to compounds as indicated in relevant figures. Medium was removed from culture plate, and 1 x passive lysis buffer was then added, the plates were frozen at −80° C. overnight and thawed at room temperature. The total cell lysates were mixed with a one fifth volume of 6x SDS sample buffer, heated at 95° C. for 5 min and cooled on ice. The lysates were cleared by centrifugation and then subjected to SDS-PAGE and western blotting essentially as described. […]
On the technique in general: In ATP-based viability assays light output follows the ATP content of the culture.

The next test has as its target HDAC1 (Homo sapiens, UniProt Q13547). As to the kind of experiment: In vitro HDAC activity assay (HDAC-Glo I/II), HDAC1. It counts as biochemical. Also on record: purchased Enzo Life Sciences BML-SE456-0050. To be noted: average of three independent assays ± standard deviation. On the procedure: (§2) Purified HDAC1, HDAC2, and HDAC3 (in complex with the deacetylase activation domain of the human NCOR2 (amino acids 395-498)) were obtained from Enzo Life Sciences (HDAC1, catalog # BML-SE456-0050) and BPS Bioscience (HDAC2, catalog #50002 and HDAC3, catalog #50003), respectively. The enzyme activities were tested using the HDAC-Glo I/II reagents (Promega) according to a protocol provided by the manufacturer.

The target in test [1] is T1, HDAC2 (Homo sapiens, UniProt Q92769). Kind of test: In vitro HDAC activity assay (HDAC-Glo I/II), HDAC2. The class given is biochemical. Also on record: purchased BPS Bioscience 50002. As to conditions: average of three independent assays ± standard deviation. As for the experimental part: as §2
T1 sequence (Q92769 whole entry, the tested form may be a part): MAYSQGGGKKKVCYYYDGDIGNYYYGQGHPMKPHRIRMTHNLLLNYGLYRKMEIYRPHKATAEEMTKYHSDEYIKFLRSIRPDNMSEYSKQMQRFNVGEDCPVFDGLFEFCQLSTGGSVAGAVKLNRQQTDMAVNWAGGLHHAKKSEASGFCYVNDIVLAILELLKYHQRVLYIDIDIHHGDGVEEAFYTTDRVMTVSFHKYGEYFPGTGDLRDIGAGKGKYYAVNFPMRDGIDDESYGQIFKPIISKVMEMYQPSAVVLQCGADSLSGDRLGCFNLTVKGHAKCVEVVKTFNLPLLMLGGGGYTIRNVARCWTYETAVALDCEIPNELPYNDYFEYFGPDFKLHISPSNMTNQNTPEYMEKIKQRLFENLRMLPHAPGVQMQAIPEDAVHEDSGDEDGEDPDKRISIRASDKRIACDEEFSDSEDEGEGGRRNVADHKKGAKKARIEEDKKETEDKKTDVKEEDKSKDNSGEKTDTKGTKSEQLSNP
Test [2] deals with T2, HDAC3 (in complex with the deacetylase activation domain of the human NCOR2 (amino acids 395-498)) (Homo sapiens, UniProt O15379).
T2 construct: purchased BPS Bioscience 50003
T2 sequence (O15379 whole entry, the tested form may be a part): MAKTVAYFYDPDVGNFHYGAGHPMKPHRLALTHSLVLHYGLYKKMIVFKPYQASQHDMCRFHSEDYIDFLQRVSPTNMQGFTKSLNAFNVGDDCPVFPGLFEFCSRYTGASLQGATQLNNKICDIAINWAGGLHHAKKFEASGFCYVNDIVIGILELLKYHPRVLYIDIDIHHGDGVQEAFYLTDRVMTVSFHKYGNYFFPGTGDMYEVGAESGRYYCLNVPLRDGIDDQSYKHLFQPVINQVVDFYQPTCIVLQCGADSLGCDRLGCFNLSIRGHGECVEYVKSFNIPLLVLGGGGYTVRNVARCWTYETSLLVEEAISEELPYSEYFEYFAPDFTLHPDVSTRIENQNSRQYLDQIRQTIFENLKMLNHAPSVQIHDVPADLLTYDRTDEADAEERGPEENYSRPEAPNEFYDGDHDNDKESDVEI
T2 sequence (Q9Y618 395-498 partner limits assumed): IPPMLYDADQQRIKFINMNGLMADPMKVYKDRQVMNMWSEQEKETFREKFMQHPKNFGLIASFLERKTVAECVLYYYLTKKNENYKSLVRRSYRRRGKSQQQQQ
As to the kind of experiment: In vitro HDAC activity assay (HDAC-Glo I/II), HDAC3. To be noted: for IC50: HDAC-Glo I/II, average of three independent assays ± standard deviation. The class given is biochemical. On the procedure: as §2

Another test addresses HDAC3 (Homo sapiens, UniProt O15379). Kind of test: HDAC3 degradation in breast cancer cell lines, Western blot. It counts as cell-based. On the set-up: endogenous in cells; host or cells: MDA-MB-468, T47D, MCF7. As to conditions: MCF7 cells, 4 h (FIG. 8A). From the text: Data are presented as representative figures of two independent experiments.
Cells were lysed for WB with antibodies against the indicated proteins. Antibodies against acetylated histones at specific sites (H3K27 and H4K5) and acetyl-lysine were used to assess levels of histone acetylation.
Cells were lysed for WB. […] The indicated BC cell lines were exposed to DMSO, XZ9002, or XZ9002-NC at the indicated concentrations. Colonies were fixed and stained.
Cell lines were obtained from ATCC and subsequently authenticated. Cells were cultured with DMEM supplemented with 10% bovine calf serum, penicillin to 10 units/mL, and streptomycin to 10 μg/mL. For viability assays, 5,000 cells/well were seeded in 96-well plates. […] For colony formation assay, cells (˜1,000 cells/well) were seeded in a 24-well plate in quadruplicates. […] Medium was replaced with freshly prepared medium containing DMSO, XZ9002 or XZ9002-NC every five days until visible colonies appeared, typically in 15 to 20 days after initial cell seeding. Cells were fixed with 4% paraformaldehyde for 15 min and stained with 2% methylene blue in 20% ethanol for 30 min to 1 h. The cells were washed twice with distilled water and dried in air. For western blotting, cell cultures were exposed to compounds as indicated in relevant figures. Medium was removed from culture plate, and 1 x passive lysis buffer was then added, the plates were frozen at −80° C. overnight and thawed at room temperature. The total cell lysates were mixed with a one fifth volume of 6x SDS sample buffer, heated at 95° C. for 5 min and cooled on ice. The lysates were cleared by centrifugation and then subjected to SDS-PAGE and western blotting essentially as described.
A general note: In western blotting, separated proteins are transferred to a membrane and probed.

The target in test [3] is T1, HDAC2. Kind of test: HDAC2 protein level in breast cancer cell lines, Western blot. It counts as cell-based. To be noted: MCF7 cells, 4 h (FIG. 8A). As for the experimental part: FIG. 3A: Western blot showing HDAC protein levels in MDA-MB-468 cells treated with the indicated concentration of XZ9002 for 14 h. FIG. 3B: pretreatment with 1 μM MG132, or 10 μM VHL032 for 1 h blocked the degradation of HDAC3 by XZ9002 {125 nM}. […] NC: XZ9002-NC. FIG. 3C: time-dependent experiment in MDA-MB-468 cells after treatment with 125 nM XZ9002 at the indicated time points. FIG. 3D: MDA-MB-468 cells were incubated with 125 nM of XZ9002 for 14 h followed by drug washout, and incubation of the cells in drug-free medium for an additional time. Data are presented as representative figures of two independent experiments.
The culture of the triple-negative breast cancer cell line MDA-MB-468 and the ER+ breast cancer cell line T47D was exposed to vehicle control (DMSO) and the indicated compounds at specified concentrations for 14 h. Cells were lysed for WB with antibodies against the indicated proteins. Antibodies against acetylated histones at specific sites (H3K27 and H4K5) and acetyl-lysine were used to assess levels of histone acetylation. Levels of HDAC3 were normalized against that of tubulin and % of HDAC3 protein levels in cells treated with the indicated compounds relative to that in DMSO control is shown.
FIGS. 8A-8B show the cellular activity of XZ9002. […] Cells were lysed for WB. The relative HDAC3 protein level in each sample is shown. […]

For test [4], the system named is non-small cell lung cancer (NSCLC) cell line H1299. As to the kind of experiment: Clonogenic growth assay, H1299. The class given is cell-based. To be noted: H1299, treatment for 10 days. On the procedure:
H1299 cells were exposed to DMSO, or 28c at the indicated concentrations. Colonies were fixed and stained after treatment for 10 days.
as §1, with “temperature.” for “temperature. The total cell lysates were mixed with a one fifth volume of 6x SDS sample buffer, heated at 95° C. for 5 min and cooled on ice. The lysates were cleared by centrifugation and then subjected to SDS-PAGE and western blotting essentially as described.”

Chain of HDAC1 (Q13547 whole entry, the tested form may be a part): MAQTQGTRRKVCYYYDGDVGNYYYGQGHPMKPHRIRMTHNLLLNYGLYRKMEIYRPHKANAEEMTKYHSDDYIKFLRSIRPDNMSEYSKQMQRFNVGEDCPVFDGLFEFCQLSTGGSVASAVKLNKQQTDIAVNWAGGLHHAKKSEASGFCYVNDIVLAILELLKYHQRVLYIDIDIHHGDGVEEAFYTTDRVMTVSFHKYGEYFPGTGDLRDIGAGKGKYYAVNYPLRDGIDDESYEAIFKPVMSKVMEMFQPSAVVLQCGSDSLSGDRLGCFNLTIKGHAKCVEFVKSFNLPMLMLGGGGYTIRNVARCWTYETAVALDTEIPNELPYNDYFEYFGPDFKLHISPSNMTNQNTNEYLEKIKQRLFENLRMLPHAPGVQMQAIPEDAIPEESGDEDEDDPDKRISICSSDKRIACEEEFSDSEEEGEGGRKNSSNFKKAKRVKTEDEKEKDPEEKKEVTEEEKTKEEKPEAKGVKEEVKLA
Chain of HDAC3 (O15379 whole entry): as the sequence (O15379 whole entry, the tested form may be a part) above
Chain of HDAC3 (Q9Y618 395-498 partner limits assumed): as the sequence (Q9Y618 395-498 partner limits assumed) above

As usually defined, the IC50 is the concentration that gives 50% inhibition. With `CCCNNC(=O)c1ccc(-c2ccc(NC(=O)CCCCC(=O)N[C@H](C(=O)N3C[C@H](O)C[C@H]3C(=O)N[C@@H](C)c3ccc(-c4scnc4C)cc3)C(C)(C)C)cc2)cc1` [Compound 8b, N^1—((S)-1-((2S,4R)-4-Hydroxy-2-(((S)-1-(4-(4-methylthiazol-5-yl)phenyl)ethyl)carbamoyl)pyrrolidin-1-yl)-3,3-dimethyl-1-oxobutan-2-yl)-N^6-(4′-(2-propylhydrazine-1-carbonyl)-[1,1′-biphenyl]-4-yl)adipamide], the “antiproliferative activity (in words)” value with MDA-MB-468 cells (MDA-MB-468, 72 h, similar trends in MDA-MB-231 and T47D cells) is “decreased antiproliferative activity”. Also, the IC50 against HDAC1 is 360 ± 60 nM; on HDAC2 [1], 1650 ± 70 nM; in test [2], 320 ± 30 nM.

`CCCNNC(=O)c1ccc(-c2ccc(NC(C)=O)cc2)cc1` [Compound 15, N-(4′-(2-propylhydrazine-1-carbonyl)[1,1′-biphenyl]-4-yl)acetamide]: at HDAC3, the “HDAC3 degradation (in words)” value is given as “does not significantly degrade”. In addition, the half-maximal inhibitory concentration (IC50) with MDA-MB-468 cells (Homo sapiens, MDA-MB-468 cell line, 72 h, CellTiter-Glo, read-out: IC50 cytotoxicity (cell viability)) is 990 nM; against HDAC1 it was 72 ± 10 nM; on HDAC2 [1], 82 ± 25 nM; in test [2] it was 13 ± 1 nM. In addition, on HDAC2 [3], the “HDAC2 degradation (in words)” value is given as “does not significantly degrade”. The “preference for HDAC3” value in test [2] (against the other tested HDAC isoforms) was at least 13 fold.

Consider `CCCNNC(=O)c1ccc(N2CCN(CCCCCCCC(=O)N[C@H](C(=O)N3C[C@H](O)C[C@H]3C(=O)N[C@@H](C)c3ccc(-c4scnc4C)cc3)C(C)(C)C)CC2)cc1` [Compound 28c, (2S,4R)-1-((S)-3,3-dimethyl-2-(8-(4-(4-(2-propylhydrazine-1-carbonyl)phenyl)piperazinyl)octanamido)butanoyl)-4-hydroxy-N—((S)-1-(4-(4-methylthiazol-5-yl)phenyl)ethyl)pyrrolidine carboxamide], for which the “inhibition of clonogenic growth” value in test [4] is given as “effective to inhibit clonogenic growth”.
